From patent US5541175A, “Cephalosporin antibiotics” (Lucky, Ltd., priority 1993, dated 1996)
≈ marks a conversion by molar mass, not a printed value. Read-outs that look alike come from different tables or passages of the source.

Assays:
[1] = test system: Acinetobacter calcoaceticus 15473A; assay: Minimum inhibitory concentration (agar 2-fold dilution); assay type: cell-based; details: A. calcoaceticus 15473A, Muller-Hinton agar, 37° C., 20 hours, read-out: Minimum Inhibitory Concentration
Experimental: (§1) The minimum inhibitory concentration was determined by diluting the test compounds according to 2-fold dilution, suspending them in Muller-Hinton agar medium, inoculating 2 μl of the suspension containing the test strains having 10^7 CFU (Colony Forming Unit) per 1 ml into the medium and then culturing the test strains at 37° C. for 20 hours.

[2] = test system: Citrobacter diversus 2046E; assay: as above; assay type: cell-based; details: Citrobacter koseri; C. diversus 2046E; Muller-Hinton agar, 37° C., 20 hours; read-out: Minimum Inhibitory Concentration
Experimental: as §1

[3] = test system: Enterobacter cloacae IND + VE 1194E; assay: as above; assay type: cell-based; details: E. cloacae IND + VE 1194E, Muller-Hinton agar, 37° C., 20 hours, read-out: Minimum Inhibitory Concentration
Experimental: as §1

[4] = test system: Enterobacter cloacae P99; assay: as above; assay type: cell-based; details: P99, 20 h, read-out: Minimum Inhibitory Concentration
Experimental: as §1

[5] = test system: Escherichia coli 10536; assay: as above; assay type: cell-based; details: Escherichia coli; E. coli 10536; Muller-Hinton agar, 37° C., 20 hours; read-out: Minimum Inhibitory Concentration
Experimental: as §1

[6] = test system: Escherichia coli 3190Y; assay: as above; assay type: cell-based; details: read-out: Minimum Inhibitory Concentration
Experimental: as §1

[7] = test system: Escherichia coli 851E; assay: as above; assay type: cell-based; details: E. coli 851E, Muller-Hinton agar, 37° C., 20 hours
Experimental: as §1

[8] = test system: Escherichia coli TEM1 1193E; assay: as above; assay type: cell-based; details: TEM11193E, 20 h, read-out: Minimum Inhibitory Concentration
Experimental: as §1

[9] = test system: Escherichia coli TEM3 3455E; assay: as above; assay type: cell-based; details: TEM33455E, 20 h, read-out: Minimum Inhibitory Concentration
Experimental: as §1

[10] = test system: Escherichia coli TEM5 3739E; assay: as above; assay type: cell-based; details: TEM53739E, 20 h, read-out: Minimum Inhibitory Concentration
Experimental: as §1

[11] = test system: Escherichia coli TEM7 3457E; assay: as above; assay type: cell-based; details: TEM73457E, 20 h, read-out: Minimum Inhibitory Concentration
Experimental: as §1

[12] = test system: Escherichia coli TEM9 2639E; assay: as above; assay type: cell-based; details: TEM92639E, 20 h, read-out: Minimum Inhibitory Concentration
Experimental: as §1

[13] = test system: Klebsiella aerogenes K1 + 1082E; assay: as above; assay type: cell-based; details: 20 h, read-out: Minimum Inhibitory Concentration
Experimental: as §1

[14] = test system: Klebsiella aerogenes SHV-1 1976E; assay: as above; assay type: cell-based; details: SHV11976E, K. aerogenes SHV-1 1976E, Muller-Hinton agar, 37° C., 20 hours
Experimental: as §1

[15] = test system: Proteus vulgaris 6059A; assay: as above; assay type: cell-based; details: P. vulgaris 6059A, Muller-Hinton agar, 37° C., 20 hours, read-out: Minimum Inhibitory Concentration
Experimental: as §1

[16] = test system: Pseudomonas aeruginosa 10145; assay: as above; assay type: cell-based; details: Pseudomonas aeruginosa; P. aeruginosa 10145; Muller-Hinton agar, 37° C., 20 hours; read-out: Minimum Inhibitory Concentration
Experimental: as §1

[17] = test system: Pseudomonas aeruginosa 1912E; assay: as above; assay type: cell-based; details: P. aeruginosa 1912E, Muller-Hinton agar, 37° C., 20 hours, read-out: Minimum Inhibitory Concentration
Experimental: as §1

[18] = test system: Pseudomonas aeruginosa 6065; assay: as above; assay type: cell-based; details: Pseudomonas aeruginosa; P. aeruginosa 6065; Muller-Hinton agar, 37° C., 20 hours; read-out: Minimum Inhibitory Concentration
Experimental: as §1

[19] = test system: Salmonella typhimurium 14028A; assay: as above; assay type: cell-based; details: Salmonella enterica; S. typhimurium 14028A; Muller-Hinton agar, 37° C., 20 hours; read-out: Minimum Inhibitory Concentration
Experimental: as §1

[20] = test system: Serratia marcescens 1826E; assay: as above; assay type: cell-based; details: S. marcescens 1826E, Muller-Hinton agar, 37° C., 20 hours, read-out: Minimum Inhibitory Concentration
Experimental: as §1

[21] = test system: Staphylococcus aureus 241; assay: as above; assay type: cell-based; details: Staphylococcus aureus; S. aureus 241; Muller-Hinton agar, 37° C., 20 hours; read-out: Minimum Inhibitory Concentration
Experimental: as §1

[22] = test system: Staphylococcus aureus 6538P; assay: as above; assay type: cell-based; details: S. aureus 6538P, Muller-Hinton agar, 37° C., 20 hours, read-out: Minimum Inhibitory Concentration
Experimental: as §1

[23] = test system: Staphylococcus aureus 77; assay: as above; assay type: cell-based; details: Staphylococcus aureus; S. aureus 77; Muller-Hinton agar, 37° C., 20 hours; read-out: Minimum Inhibitory Concentration
Experimental: as §1

[24] = test system: Staphylococcus aureus epidermidis 887E; assay: as above; assay type: cell-based; details: S. aureus epidermidis 887E, Muller-Hinton agar, 37° C., 20 hours, read-out: Minimum Inhibitory Concentration
Experimental: as §1

[25] = test system: Staphylococcus aureus giorgio; assay: as above; assay type: cell-based; details: read-out: Minimum Inhibitory Concentration
Experimental: as §1

[26] = test system: Streptococcus faecalis 29212A; assay: as above; assay type: cell-based; details: Enterococcus faecalis; S. faecalis 29212A; Muller-Hinton agar, 37° C., 20 hours; read-out: Minimum Inhibitory Concentration
Experimental: as §1

[27] = Pharmacokinetic properties in rats (blood concentration by agar well biological assay); parameters: species or system SD rats (male); details: rat, in vivo, iv, 20 mg/kg
Experimental: The pharmacokinetic properties of the compound of the present invention were determined using SD rats (.male.) weighing 230±10 g. Specifically,the test samples were injected into femoral vein in an amount of 20 mg/kg to 4 to 5 test animals. Blood was taken from femoral vein 1, 2.5, 5, 10, 20, 40, 60, 120 and 180 minutes after administration and then subjected to a biological assay using agar well method to measure the blood concentration.

Nc1cc(N)[n+](C/C=C/C2=C(C(=O)[O-])N3C(=O)[C@@H](NC(=O)/C(=N\O[C@H](C(=O)O)c4ccc(O)c(O)c4)c4csc(N)n4)[C@H]3SC2)cn1 [Compound I-1a, 7-[(Z)-2-(2-aminothiazol-4-yl)-2-(α-carboxy-3,4-dihydroxybenzyloxyimino)acetamido]-3-[(E)-3-(4,6-diaminopyrimidinium-1-yl)-1-propen-1-yl]-3-cephem-4-carboxylate]
MIC [1]: 1 µg/mL (≈ 1.46 µM) | MIC [2]: 0.13 µg/mL (≈ 0.19 µM) | MIC [3]: 4 µg/mL | MIC [4]: 32 µg/mL (≈ 46.8 µM) | MIC [5]: ≤ 0.008 µg/mL | MIC ([6]; E. coli 3190Y, Muller-Hinton agar, 37° C., 20 hours): 0.031 µg/mL (≈ 0.0453 µM) | MIC [7]: 0.031 µg/mL (≈ 0.0453 µM) | MIC [8]: 0.031 µg/mL (≈ 0.0453 µM) | MIC [9]: 0.13 µg/mL (≈ 0.19 µM) | MIC [10]: 0.5 µg/mL (≈ 0.731 µM) | MIC [11]: 0.13 µg/mL (≈ 0.19 µM) | MIC [12]: 2 µg/mL (≈ 2.93 µM) | MIC [13]: 0.063 µg/mL (≈ 0.0921 µM) | MIC [14]: 0.13 µg/mL (≈ 0.19 µM) | MIC [15]: 0.063 µg/mL (≈ 0.0921 µM) | MIC [16]: 0.25 µg/mL (≈ 0.366 µM) | MIC [17]: 0.5 µg/mL (≈ 0.731 µM) | MIC [18]: 1 µg/mL (≈ 1.46 µM) | MIC [19]: 0.016 µg/mL (≈ 0.0234 µM) | MIC [20]: 0.25 µg/mL (≈ 0.366 µM) | MIC [21]: 64 µg/mL (≈ 93.6 µM) | MIC [22]: 0.5 µg/mL (≈ 0.731 µM) | MIC [23]: 4 µg/mL (≈ 5.85 µM) | MIC [24]: 64 µg/mL (≈ 93.6 µM) | MIC ([25]; S. aureus giorgio, Muller-Hinton agar, 37° C., 20 hours): 0.5 µg/mL (≈ 0.731 µM) | MIC [26]: 4 µg/mL (≈ 5.85 µM) | AUC [27]: 32700 ng·h/mL | half-life [27]: 34 min

Nc1cc[n+](C/C=C/C2=C(C(=O)[O-])N3C(=O)[C@@H](NC(=O)/C(=N\O[C@H](C(=O)O)c4ccc(O)c(O)c4)c4csc(N)n4)[C@H]3SC2)cn1 [Compound I-2a, 7-[(Z)-2-(2-aminothiazol-4-yl)-2-(α-carboxy-3,4-dihydroxybenzyloxyimino)acetamido]-3-[(E)-3-(4-aminopyrimidinium-1-yl)-1-propen-1-yl]-3-cephem-4-carboxylate]
MIC [1]: 0.5 µg/mL (≈ 0.748 µM) | MIC [2]: 0.13 µg/mL (≈ 0.194 µM) | MIC [3]: 1 µg/mL | MIC [4]: 8 µg/mL (≈ 12 µM) | MIC [5]: 0.016 µg/mL (≈ 0.0239 µM) | MIC ([6]; 3190Y, 20 h): 0.063 µg/mL (≈ 0.0942 µM) | MIC [7]: 0.063 µg/mL (≈ 0.0942 µM) | MIC [8]: 0.063 µg/mL (≈ 0.0942 µM) | MIC [9]: 0.063 µg/mL (≈ 0.0942 µM) | MIC [10]: 0.5 µg/mL (≈ 0.748 µM) | MIC [11]: 0.031 µg/mL (≈ 0.0464 µM) | MIC [12]: 1 µg/mL (≈ 1.5 µM) | MIC [13]: 0.13 µg/mL (≈ 0.194 µM) | MIC [14]: 0.5 µg/mL (≈ 0.748 µM) | MIC [15]: 0.063 µg/mL (≈ 0.0942 µM) | MIC [16]: 0.25 µg/mL (≈ 0.374 µM) | MIC [17]: 0.5 µg/mL (≈ 0.748 µM) | MIC [18]: 4 µg/mL (≈ 5.98 µM) | MIC [19]: 0.03 µg/mL (≈ 0.0449 µM) | MIC [20]: 0.5 µg/mL (≈ 0.748 µM) | MIC [21]: 128 µg/mL (≈ 191 µM) | MIC [22]: 0.5 µg/mL (≈ 0.748 µM) | MIC [23]: 4 µg/mL (≈ 5.98 µM) | MIC [24]: 32 µg/mL (≈ 47.9 µM) | MIC ([25]; 20 h): 0.25 µg/mL (≈ 0.374 µM) | MIC [26]: 4 µg/mL (≈ 5.98 µM) | AUC [27]: 53600 ng·h/mL | half-life [27]: 55 min
